According to PubChem BioAssay AID2060619 (Molecular Pharmacology Branch, DTP, NCI, 2025):

Tested on: 323965-272-R-J2-PDC complex spheroid viability
Test: Anticancer human tumor 323965-272-R-J2-PDC patient-derived pancreatic carcinoma cell line growth inhibition [CLK]
Conditions: for IC50: curve of first compound; for viability, T/C: stronger effect = lower value
In short: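 Patient-derived tumor cells grown as complex spheroids with HUVEC endothelial cells and mesenchymal stem cells, treated with drug combinations. Concentrations descend in half-log steps from near clinical Cmax, or from 10 microM if Cmax unknown.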

[1] = second compound 0.0316 µM, first compound 0.0316 µM
[2] = second compound 0.0316 µM, first compound 0.1 µM
[3] = second compound 0.0316 µM, first compound 0.316 µM
[4] = second compound 0.0316 µM, first compound 1 µM
[5] = second compound 0.0316 µM, first compound 3.16 µM
[6] = second compound 0.0316 µM, first compound 10 µM
[7] = second compound 0.1 µM, first compound 0.0316 µM
[8] = second compound 0.1 µM, first compound 0.1 µM
[9] = second compound 0.1 µM, first compound 0.316 µM
[10] = second compound 0.1 µM, first compound 1 µM
[11] = second compound 0.1 µM, first compound 3.16 µM
[12] = second compound 0.1 µM, first compound 10 µM
[13] = second compound 0.316 µM, first compound 0.0316 µM
[14] = second compound 0.316 µM, first compound 0.1 µM
[15] = second compound 0.316 µM, first compound 0.316 µM
[16] = second compound 0.316 µM, first compound 1 µM
[17] = second compound 0.316 µM, first compound 3.16 µM
[18] = second compound 0.316 µM, first compound 10 µM
[19] = second compound 1 µM, first compound 0.0316 µM
[20] = second compound 1 µM, first compound 0.1 µM
[21] = second compound 1 µM, first compound 0.316 µM
[22] = second compound 1 µM, first compound 1 µM
[23] = second compound 1 µM, first compound 3.16 µM
[24] = second compound 1 µM, first compound 10 µM
[25] = second compound 3.16 µM, first compound 0.0316 µM
[26] = second compound 3.16 µM, first compound 0.1 µM
[27] = second compound 3.16 µM, first compound 0.316 µM
[28] = second compound 3.16 µM, first compound 1 µM
[29] = second compound 3.16 µM, first compound 3.16 µM
[30] = second compound 3.16 µM, first compound 10 µM
[31] = second compound 10 µM, first compound 0.0316 µM
[32] = second compound 10 µM, first compound 0.1 µM
[33] = second compound 10 µM, first compound 0.316 µM
[34] = second compound 10 µM, first compound 1 µM
[35] = second compound 10 µM, first compound 3.16 µM
[36] = second compound 10 µM, first compound 10 µM
[37] = second compound 0.0316 µM, first compound 0.00316 µM
[38] = second compound 0.0316 µM, first compound 0.01 µM
[39] = second compound 0.1 µM, first compound 0.00316 µM
[40] = second compound 0.1 µM, first compound 0.01 µM
[41] = second compound 0.316 µM, first compound 0.00316 µM
[42] = second compound 0.316 µM, first compound 0.01 µM
[43] = second compound 1 µM, first compound 0.00316 µM
[44] = second compound 1 µM, first compound 0.01 µM
[45] = second compound 3.16 µM, first compound 0.00316 µM
[46] = second compound 3.16 µM, first compound 0.01 µM
[47] = second compound 10 µM, first compound 0.00316 µM
[48] = second compound 10 µM, first compound 0.01 µM
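Further: spheroids exposed to agents for seven days before readout.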
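Wherever viability, T/C is given: percent of DMSO vehicle control wells so 100% = untreated growth.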

## CC(CO)NC(=O)c1cc(-c2ccc(Cl)cc2)nn(-c2cnn(C)c2)c1=O (stereo not drawn) + CNC(=O)c1ccc(Nc2nc(OC3CCCC3)c3c(-c4ccc5nc(C)oc5c4)c[nH]c3n2)c(OC)c1
Second compound 0.0316 µM
  IC50: > 10000 nM
Second compound 0.1 µM
  IC50: > 10000 nM
Second compound 0.316 µM
  IC50: > 10000 nM
Second compound 1 µM
  IC50: < 31.6 nM
Second compound 3.16 µM
  IC50: < 31.6 nM
Second compound 10 µM
  IC50: < 31.6 nM
[1]
  viability, T/C: 122%
[2]
  viability, T/C: 85.6%
[3]
  viability, T/C: 100%
[4]
  viability, T/C: 101%
[5]
  viability, T/C: 102%
[6]
  viability, T/C: 103%
[7]
  viability, T/C: 81.2%
[8]
  viability, T/C: 80.5%
[9]
  viability, T/C: 76.5%
[10]
  viability, T/C: 73.7%
[11]
  viability, T/C: 76.9%
[12]
  viability, T/C: 72.1%
[13]
  viability, T/C: 60%
[14]
  viability, T/C: 67.4%
[15]
  viability, T/C: 67.1%
[16]
  viability, T/C: 57.8%
[17]
  viability, T/C: 61%
[18]
  viability, T/C: 53.4%
[19]
  viability, T/C: 50.8%
[20]
  viability, T/C: 41.2%
[21]
  viability, T/C: 42.2%
[22]
  viability, T/C: 51.1%
[23]
  viability, T/C: 51.6%
[24]
  viability, T/C: 48.7%
[25]
  viability, T/C: 41.8%
[26]
  viability, T/C: 42.5%
[27]
  viability, T/C: 40.1%
[28]
  viability, T/C: 35.5%
[29]
  viability, T/C: 44.4%
[30]
  viability, T/C: 47.1%
[31]
  viability, T/C: 43.2%
[32]
  viability, T/C: 40.4%
[33]
  viability, T/C: 36.8%
[34]
  viability, T/C: 43.1%
[35]
  viability, T/C: 41.5%
[36]
  viability, T/C: 41.4%

## CC(Nc1ccc2c(c1)OCCn1cc(N3C(=O)OCC3C(F)F)nc1-2)C(N)=O (stereo not drawn) + CNC(=O)c1ccc(Nc2nc(OC3CCCC3)c3c(-c4ccc5nc(C)oc5c4)c[nH]c3n2)c(OC)c1
Second compound 0.0316 µM
  IC50: > 10000 nM
Second compound 0.1 µM
  IC50: > 10000 nM
Second compound 0.316 µM
  IC50: 290 nM
Second compound 1 µM
  IC50: < 31.6 nM
Second compound 3.16 µM
  IC50: < 31.6 nM
Second compound 10 µM
  IC50: < 31.6 nM
[1]
  viability, T/C: 110%
[2]
  viability, T/C: 97.7%
[3]
  viability, T/C: 80.4%
[4]
  viability, T/C: 68.9%
[5]
  viability, T/C: 64%
[6]
  viability, T/C: 52%
[7]
  viability, T/C: 89.7%
[8]
  viability, T/C: 74.6%
[9]
  viability, T/C: 73.9%
[10]
  viability, T/C: 71.6%
[11]
  viability, T/C: 58.4%
[12]
  viability, T/C: 50.5%
[13]
  viability, T/C: 63.6%
[14]
  viability, T/C: 59.5%
[15]
  viability, T/C: 48.5%
[16]
  viability, T/C: 43.1%
[17]
  viability, T/C: 39.9%
[18]
  viability, T/C: 39.2%
[19]
  viability, T/C: 43.4%
[20]
  viability, T/C: 36.5%
[21]
  viability, T/C: 33%
[22]
  viability, T/C: 29.6%
[23]
  viability, T/C: 30.1%
[24]
  viability, T/C: 27.7%
[25]
  viability, T/C: 34.8%
[26]
  viability, T/C: 35.6%
[27]
  viability, T/C: 30.7%
[28]
  viability, T/C: 27.8%
[29]
  viability, T/C: 30.7%
[30]
  viability, T/C: 21.7%
[31]
  viability, T/C: 42%
[32]
  viability, T/C: 33.8%
[33]
  viability, T/C: 28%
[34]
  viability, T/C: 28.8%
[35]
  viability, T/C: 28%
[36]
  viability, T/C: 20.9%

## CCN1CCN(Cc2ccc(Nc3ncc(F)c(-c4cc(F)c5nc(C)n(C(C)C)c5c4)n3)nc2)CC1 + CNC(=O)c1ccc(Nc2nc(OC3CCCC3)c3c(-c4ccc5nc(C)oc5c4)c[nH]c3n2)c(OC)c1
Second compound 0.0316 µM
  IC50: > 1000 nM
Second compound 0.1 µM
  IC50: > 1000 nM
Second compound 0.316 µM
  IC50: > 1000 nM
Second compound 1 µM
  IC50: < 3.16 nM
Second compound 3.16 µM
  IC50: < 3.16 nM
Second compound 10 µM
  IC50: < 3.16 nM
[37]
  viability, T/C: 90.3%
[38]
  viability, T/C: 103%
[1]
  viability, T/C: 86.9%
[2]
  viability, T/C: 68.4%
[3]
  viability, T/C: 66.2%
[4]
  viability, T/C: 74.3%
[39]
  viability, T/C: 84.9%
[40]
  viability, T/C: 73.4%
[7]
  viability, T/C: 60.6%
[8]
  viability, T/C: 63.1%
[9]
  viability, T/C: 55.7%
[10]
  viability, T/C: 67.6%
[41]
  viability, T/C: 64.1%
[42]
  viability, T/C: 53.4%
[13]
  viability, T/C: 54.2%
[14]
  viability, T/C: 44.2%
[15]
  viability, T/C: 50.6%
[16]
  viability, T/C: 57.6%
[43]
  viability, T/C: 48.5%
[44]
  viability, T/C: 40.5%
[19]
  viability, T/C: 45.9%
[20]
  viability, T/C: 49.4%
[21]
  viability, T/C: 40.4%
[22]
  viability, T/C: 61.7%
[45]
  viability, T/C: 42.8%
[46]
  viability, T/C: 39.2%
[25]
  viability, T/C: 37.6%
[26]
  viability, T/C: 39.8%
[27]
  viability, T/C: 43.1%
[28]
  viability, T/C: 46.8%
[47]
  viability, T/C: 42.7%
[48]
  viability, T/C: 46.4%
[31]
  viability, T/C: 41.5%
[32]
  viability, T/C: 38.5%
[33]
  viability, T/C: 46%
[34]
  viability, T/C: 48.5%

## COc1c(OCCCN2CCOCC2)ccc2c3n(c(=NC(=O)c4cnc(N)nc4)nc12)CCN3 + CNC(=O)c1ccc(Nc2nc(OC3CCCC3)c3c(-c4ccc5nc(C)oc5c4)c[nH]c3n2)c(OC)c1
Second compound 0.0316 µM
  IC50: 90.7 nM
Second compound 0.1 µM
  IC50: 62.2 nM
Second compound 0.316 µM
  IC50: 16.3 nM
Second compound 1 µM
  IC50: < 3.16 nM
Second compound 3.16 µM
  IC50: < 3.16 nM
Second compound 10 µM
  IC50: < 3.16 nM
[37]
  viability, T/C: 107%
[38]
  viability, T/C: 82%
[1]
  viability, T/C: 66.8%
[2]
  viability, T/C: 48.4%
[3]
  viability, T/C: 34.1%
[4]
  viability, T/C: 22.2%
[39]
  viability, T/C: 89.8%
[40]
  viability, T/C: 84.6%
[7]
  viability, T/C: 58.8%
[8]
  viability, T/C: 42%
[9]
  viability, T/C: 31.2%
[10]
  viability, T/C: 21.1%
[41]
  viability, T/C: 64.5%
[42]
  viability, T/C: 56.7%
[13]
  viability, T/C: 42.4%
[14]
  viability, T/C: 31.7%
[15]
  viability, T/C: 27.7%
[16]
  viability, T/C: 16.4%
[43]
  viability, T/C: 45.5%
[44]
  viability, T/C: 38.8%
[19]
  viability, T/C: 31.8%
[20]
  viability, T/C: 24.5%
[21]
  viability, T/C: 21.4%
[22]
  viability, T/C: 15.2%
[45]
  viability, T/C: 37.5%
[46]
  viability, T/C: 28.3%
[25]
  viability, T/C: 23.3%
[26]
  viability, T/C: 19.4%
[27]
  viability, T/C: 15.8%
[28]
  viability, T/C: 13.7%
[47]
  viability, T/C: 44.8%
[48]
  viability, T/C: 32.7%
[31]
  viability, T/C: 26.4%
[32]
  viability, T/C: 19.8%
[33]
  viability, T/C: 17.1%
[34]
  viability, T/C: 13.5%
